Data set [1] addresses T1, Ceramide glucosyltransferase (Homo sapiens, UniProt Q16739).
T1 sequence (Q16739 whole entry): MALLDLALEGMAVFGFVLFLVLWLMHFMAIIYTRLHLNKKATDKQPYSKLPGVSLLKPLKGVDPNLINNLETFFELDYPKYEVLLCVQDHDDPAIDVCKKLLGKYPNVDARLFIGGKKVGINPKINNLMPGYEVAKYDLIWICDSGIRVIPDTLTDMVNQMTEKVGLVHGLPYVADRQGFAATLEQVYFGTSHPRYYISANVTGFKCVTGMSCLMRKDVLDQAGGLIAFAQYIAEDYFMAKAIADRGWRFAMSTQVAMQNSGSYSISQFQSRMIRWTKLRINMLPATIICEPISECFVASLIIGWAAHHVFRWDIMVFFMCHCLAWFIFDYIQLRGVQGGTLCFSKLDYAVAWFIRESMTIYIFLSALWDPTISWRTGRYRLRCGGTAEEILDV
The experiment in a line: Inhibition of GCS in human fibroblast. The class given is cell-based.

For data set [2], the target named is T2, mouse BCRP (ABCG2) (Mus musculus, UniProt Q7TMS5).
T2 sequence (Q7TMS5 whole entry): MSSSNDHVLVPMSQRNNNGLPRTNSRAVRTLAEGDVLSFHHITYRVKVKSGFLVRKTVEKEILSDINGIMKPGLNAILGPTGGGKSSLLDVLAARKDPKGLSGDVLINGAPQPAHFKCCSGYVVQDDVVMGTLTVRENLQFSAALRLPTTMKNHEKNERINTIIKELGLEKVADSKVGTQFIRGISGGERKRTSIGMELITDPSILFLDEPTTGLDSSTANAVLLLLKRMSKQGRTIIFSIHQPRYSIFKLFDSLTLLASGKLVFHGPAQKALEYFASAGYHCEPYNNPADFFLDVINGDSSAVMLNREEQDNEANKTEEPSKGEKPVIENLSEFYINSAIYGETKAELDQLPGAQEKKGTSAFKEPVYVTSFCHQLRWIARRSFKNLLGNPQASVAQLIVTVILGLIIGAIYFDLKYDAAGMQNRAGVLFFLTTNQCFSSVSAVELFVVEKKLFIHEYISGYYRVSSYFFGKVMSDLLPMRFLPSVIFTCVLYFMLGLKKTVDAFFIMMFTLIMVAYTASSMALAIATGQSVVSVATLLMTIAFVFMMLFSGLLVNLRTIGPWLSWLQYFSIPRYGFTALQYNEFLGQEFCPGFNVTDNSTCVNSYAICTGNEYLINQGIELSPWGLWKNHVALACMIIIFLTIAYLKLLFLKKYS
The experiment in a line: Substrate activity at mouse BCRP assessed as efflux ratio at 1 uM. Type of data set: ADME. Conditions: not told.

Data set [3] can be described thus: Intrinsic clearance in rat at 5 to 10 mg/kg, po or 0.05 to 2 mg/kg, iv. Type of data set: ADME, organism-based. Conditions: in vivo, dose 5-10 mg/kg.
For data set [4], the target named is T3, 5-hydroxytryptamine receptor 3A (Homo sapiens, UniProt P46098).
T3 sequence (P46098 whole entry): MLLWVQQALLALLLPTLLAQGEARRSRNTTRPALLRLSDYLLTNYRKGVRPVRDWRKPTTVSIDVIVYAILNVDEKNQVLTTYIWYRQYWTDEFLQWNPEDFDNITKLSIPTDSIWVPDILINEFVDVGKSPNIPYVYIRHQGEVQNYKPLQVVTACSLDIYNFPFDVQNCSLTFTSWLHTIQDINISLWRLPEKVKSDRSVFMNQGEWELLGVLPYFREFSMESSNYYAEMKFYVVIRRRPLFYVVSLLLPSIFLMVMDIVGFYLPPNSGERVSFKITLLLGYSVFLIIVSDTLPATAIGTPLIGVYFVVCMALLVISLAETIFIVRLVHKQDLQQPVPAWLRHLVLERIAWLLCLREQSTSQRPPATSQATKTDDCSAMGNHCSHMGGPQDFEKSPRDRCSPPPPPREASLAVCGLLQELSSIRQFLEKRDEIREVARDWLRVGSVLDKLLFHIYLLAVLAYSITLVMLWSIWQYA
The experiment in a line: Antagonist activity at human 5HT3A expressed in HEK293 cells incubated for 1 hr by FLIPR assay. Type of data set: cell-based.

For data set [5], the system named is rat P-gp. The experiment in a line: Substrate activity at rat P-gp assessed as efflux ratio at 1 uM. Type of data set: ADME. Conditions: not told.
For the next data set, the species on record is Homo sapiens. Put plainly: Selectivity ratio of IC50 for human 5HT3A to IC50 for GCS (unknown origin).
In data set [6] the target is T2, mouse BCRP (ABCG2). The experiment in a line: Substrate activity at mouse BCRP assessed as apparent permeability at 1 uM. The class given is ADME. Conditions: not told.
The nature of data set [7]: Mean residence time in rat at 5 to 10 mg/kg, po or 0.05 to 2 mg/kg, iv. The class given is ADME, organism-based. As to conditions: in vivo, dose 5-10 mg/kg.
Data set [8] concerns rat P-gp. The experiment in a line: Substrate activity at rat P-gp assessed as apparent permeability at 1 uM. Type of data set: ADME. As to conditions: not told.
Data set [9] is described as follows: Bioavailability in rat at 5 to 10 mg/kg, po or 0.05 to 2 mg/kg, iv. The class given is ADME, organism-based. As to conditions: in vivo, dose 5-10 mg/kg.
For data set [10], the target named is T1, Ceramide glucosyltransferase. The experiment in a line: Inhibition of Glucosylceramide synthase (unknown origin) using C6-ceramide and UDP-glucose as substrate preincubated for 30 mins followed by substrate addition and measured after 2 hrs by UDP-Glo luminometer analysis.
Data set [11] in a line: Lipophilicity, logD of compound by HPLC method. Type of data set: physicochemical.

The term IC50 denotes the concentration that gives 50% inhibition. Low readings indicate inhibition by little substance, high ones a need for much substance. As a reminder, the efflux ratio is the permeability from basolateral to apical divided by that in the opposite direction, in the common usage. As usually defined, the Papp is a coefficient for how fast a substance crosses the barrier. The term MRT denotes a mean duration of stay, worked out from the concentration-time curve. Turning to `O=C(N1CCN2CCC1CC2)n1nc(-c2ccc(C(F)(F)F)cc2)c2c1COCC2`, the IC50 in data set [1] was determined as 21 nM; in data set [4], 1590 nM. Moreover, the values for the efflux ratio at 1 µM on mouse BCRP (ABCG2) [2] and in the data set with rat P-gp [5] were 1.2 and 3.2, respectively. Further, the CL in [3] turned out to be 610 mL/min/kg. Also, the Ratio IC50 in the data set filed under Homo sapiens amounted to 647. Further, the Papp at 1 µM at mouse BCRP (ABCG2) [6] turned out to be 33 ×10⁻⁶ cm/s. Also, the mean residence time MRT in data set [7] is 3.3 h.
Consider `COc1ccc(-n2nc(C(=O)N3CCNCC(CO)C3)c3c2CCOC3)cc1` (racemic), for which the Papp at 1 µM with rat P-gp [8] is 6 ×10⁻⁶ cm/s.
The term bioavailability denotes the share of a dose that reaches the circulation, judged against a reference dose that is usually intravenous. In turn, `O=C(N1CCN2CCC1CC2)n1nc(-n2cc(C(F)(F)F)cn2)c2c1CCC2` showed a bioavailability in data set [9] of 25%. In addition, the IC50 in [1] was 32 nM; in data set [4], 2190 nM. For the same molecule, the efflux ratio at 1 µM at mouse BCRP (ABCG2) [2] was found to be 0.8; in the data set with rat P-gp [5], 1.7. The same molecule showed a CL in [3] of 89 mL/min/kg. For the same molecule, in the data set listed under Homo sapiens, the Ratio IC50 was determined as 5480. For the same molecule, at mouse BCRP (ABCG2) [6], the apparent permeability (Papp) at 1 µM was determined as 24 ×10⁻⁶ cm/s. This molecule yielded an MRT in data set [7] of 5.9 h.
In the case of `COc1ccc(-n2nc(C(=O)N3CCCN(C)CC3)c3c2CCOC3)cc1`, the IC50 in data set [1] worked out at 180 nM; in data set [10] it was 1000 nM. In addition, the efflux ratio at 1 µM in the data set on rat P-gp [5] came out at 5.
Turning to `CC1(C)Cc2c(c(-c3ccc(F)cc3)nn2C(=O)N2CCN3CCC2CC3)CO1`, the IC50 in data set [1] is 32 nM; in data set [4], 4210 nM. Further, the efflux ratio at 1 µM at mouse BCRP (ABCG2) [2] came to 0.9; in the data set on rat P-gp [5], 8.5. Besides, the CL in data set [3] is 180 mL/min/kg. The Ratio IC50 in the data set filed under Homo sapiens is 470. The Papp at 1 µM on mouse BCRP (ABCG2) [6] was found to be 31 ×10⁻⁶ cm/s. The MRT in data set [7] is 2.6 h.
Consider `O=C(N1CCN2CCC1CC2)n1nc(-n2cc(Cl)cn2)c2c1COCC2`, for which the IC50 in data set [1] is 37 nM; in data set [4] it was 585 nM. The efflux ratio at 1 µM on mouse BCRP (ABCG2) [2] came out at 1.4; in the data set with rat P-gp [5], 4.4. Also, the CL in data set [3] was found to be 120 mL/min/kg. In addition, the Ratio IC50 in the data set filed under Homo sapiens was found to be 96. In addition, the Papp at 1 µM on mouse BCRP (ABCG2) [6] worked out at 32 ×10⁻⁶ cm/s. The same molecule showed an MRT in data set [7] of 1.1 h.
Turning to `COc1ccc(-n2nc(C(=O)N3CC(c4cnc(C)n4C)C3)c3c2CCOC3)cc1`, the IC50 in data set [10] is over 28000 nM.
The same measure, in the same setting: under `CCN1CCCN(C(=O)c2nn(-c3ccc(OC)cc3)c3c2COCC3)CC1` stands 7400 nM.
The molecule `O=C(N1CCN2CCC1CC2)n1nc(-n2cc(C(F)(F)F)cn2)c2c1[C@H]1C[C@H]1C2` returned a bioavailability in [9] of 67%. The IC50 in data set [1] is 33 nM; in data set [4], 2470 nM. Also, the efflux ratio at 1 µM at mouse BCRP (ABCG2) [2] amounted to 0.8; with rat P-gp [5] it was 2.2. Further, the CL in data set [3] is 85 mL/min/kg. In the data set listed under Homo sapiens, the Ratio IC50 came out at 25000. The Papp at 1 µM at mouse BCRP (ABCG2) [6] worked out at 23 ×10⁻⁶ cm/s. In [7], this molecule came in with an MRT of 8.2 h.
For `COc1ccc(-n2nc(C(=O)N3CCN(C)CC(F)C3)c3c2CCOC3)cc1` (racemic), the IC50 in data set [10] worked out at 12500 nM.
The logD is the decadic logarithm of the distribution of all forms, ionised or not, between an organic phase and buffer at a given pH. As to `O=C(c1nn(-c2ccc(F)c(Cl)c2)c2c1COCC2)N1CCN2CCC1CC2`, the IC50 in [10] was determined as 6 nM. The efflux ratio at 1 µM in the data set on rat P-gp [5] was determined as 19. For the same molecule, the logD in [11] came to 1.9. Besides, the Papp at 1 µM in the data set with rat P-gp [8] came to 32 ×10⁻⁶ cm/s.
The molecule `COc1ccc(-n2nc(C(=O)N3CCCNCC3)c3c2CCOC3)cc1` displayed an IC50 in [10] of 690 nM.
For the molecule `COc1ccc(-n2nc(C(=O)N3CCN4CCC3CC4)c3c2CCOC3)cc1`, the Papp at 1 µM in the data set with rat P-gp [8] worked out at 31 ×10⁻⁶ cm/s.
Consider `O=C(N1CCN2CCC1CC2)n1nc(-n2cc(C(F)(F)F)cn2)c2c1CCOC2`, for which the IC50 in data set [1] was 32 nM; in [4], 7470 nM. Moreover, the efflux ratio at 1 µM on mouse BCRP (ABCG2) [2] was found to be 1.2; in the data set with rat P-gp [5], 2.7. The molecule further registered a CL in data set [3] of 39 mL/min/kg. The Ratio IC50 in the data set filed under Homo sapiens came out at 2070. Besides, the Papp at 1 µM at mouse BCRP (ABCG2) [6] amounted to 42 ×10⁻⁶ cm/s. This molecule came in with a mean residence time (MRT) in [7] of 3.2 h.
As to `O=C(N1CCN2CCC1CC2)n1nc(-c2ccc(F)c(Cl)c2)c2c1COCC2`, half-maximal inhibition in data set [10] (IC50) required 1 nM. In the data set with rat P-gp [5], the efflux ratio at 1 µM was 1.7. Besides, the logD in data set [11] amounted to 2.8. In addition, the Papp at 1 µM in the data set on rat P-gp [8] turned out to be 24 ×10⁻⁶ cm/s.
Consider `COc1ccc(-c2nn(C(=O)N3CCN4CCC3CC4)c3c2CCOC3)cc1`, for which the results for the IC50 in [1] and in [4] were 35 nM and 338 nM, respectively. In addition, the figures for the efflux ratio at 1 µM at mouse BCRP (ABCG2) [2] and with rat P-gp [5] were 1.4 and 4.4, respectively. In [3], the CL was determined as 3510 mL/min/kg. Further, in the data set listed under Homo sapiens, the Ratio IC50 came to 164. For the same molecule, the Papp at 1 µM on mouse BCRP (ABCG2) [6] was determined as 32 ×10⁻⁶ cm/s. In [7], this molecule came in with a mean residence time MRT of 0.7 h.

Values taken from ChEMBL document CHEMBL5223177, “Pyrazole Ureas as Low Dose, CNS Penetrant Glucosylceramide Synthase Inhibitors for the Treatment of Parkinson's Disease” (ACS Med Chem Lett, 2023).
